Earlier results as cited in patent publication US11109615B2, “Vitamin A composition” (NESTEC S.A., priority 2015, dated 2021).

Details: ambient conditions

maximum solubility: 0.08 g/100 g oil
SMILES: CC1=C(/C=C/C(C)=C/C=C/C(C)=C/C=C/C=C(C)/C=C/C=C(C)/C=C/C2=C(C)CCCC2(C)C)C(C)(C)CCC1 [β-carotene, All-trans-β-carotene]
